According to patent US8741899B2, “(4-chloro-2-fluoro-N-(2-fluorophenyl)-5-[(8aR)-hexahydropyrrolo-[1,2-a]pyrazin-2(1H)-ylcarbonyl]-benzenesulfonamide, and pharmaceutically acceptable salts thereof” (AbbVie Inc., priority 2009, dated 2014):

biological target: T1, Human Cav3.2 Channels (Homo sapiens, UniProt O95180); experiment: Electrophysiologic (whole-cell patch-clamp) assessment of calcium channel activity in HEK293 cells stably expressing hCav3.2; assay type: cell-based; conditions: −77 mV, geometric mean, read-out: Human Cav3.2 −77 mV IC50 (μM) GeoMean
T1 construct: expressed in transfected cells
T1 sequence (O95180 whole entry): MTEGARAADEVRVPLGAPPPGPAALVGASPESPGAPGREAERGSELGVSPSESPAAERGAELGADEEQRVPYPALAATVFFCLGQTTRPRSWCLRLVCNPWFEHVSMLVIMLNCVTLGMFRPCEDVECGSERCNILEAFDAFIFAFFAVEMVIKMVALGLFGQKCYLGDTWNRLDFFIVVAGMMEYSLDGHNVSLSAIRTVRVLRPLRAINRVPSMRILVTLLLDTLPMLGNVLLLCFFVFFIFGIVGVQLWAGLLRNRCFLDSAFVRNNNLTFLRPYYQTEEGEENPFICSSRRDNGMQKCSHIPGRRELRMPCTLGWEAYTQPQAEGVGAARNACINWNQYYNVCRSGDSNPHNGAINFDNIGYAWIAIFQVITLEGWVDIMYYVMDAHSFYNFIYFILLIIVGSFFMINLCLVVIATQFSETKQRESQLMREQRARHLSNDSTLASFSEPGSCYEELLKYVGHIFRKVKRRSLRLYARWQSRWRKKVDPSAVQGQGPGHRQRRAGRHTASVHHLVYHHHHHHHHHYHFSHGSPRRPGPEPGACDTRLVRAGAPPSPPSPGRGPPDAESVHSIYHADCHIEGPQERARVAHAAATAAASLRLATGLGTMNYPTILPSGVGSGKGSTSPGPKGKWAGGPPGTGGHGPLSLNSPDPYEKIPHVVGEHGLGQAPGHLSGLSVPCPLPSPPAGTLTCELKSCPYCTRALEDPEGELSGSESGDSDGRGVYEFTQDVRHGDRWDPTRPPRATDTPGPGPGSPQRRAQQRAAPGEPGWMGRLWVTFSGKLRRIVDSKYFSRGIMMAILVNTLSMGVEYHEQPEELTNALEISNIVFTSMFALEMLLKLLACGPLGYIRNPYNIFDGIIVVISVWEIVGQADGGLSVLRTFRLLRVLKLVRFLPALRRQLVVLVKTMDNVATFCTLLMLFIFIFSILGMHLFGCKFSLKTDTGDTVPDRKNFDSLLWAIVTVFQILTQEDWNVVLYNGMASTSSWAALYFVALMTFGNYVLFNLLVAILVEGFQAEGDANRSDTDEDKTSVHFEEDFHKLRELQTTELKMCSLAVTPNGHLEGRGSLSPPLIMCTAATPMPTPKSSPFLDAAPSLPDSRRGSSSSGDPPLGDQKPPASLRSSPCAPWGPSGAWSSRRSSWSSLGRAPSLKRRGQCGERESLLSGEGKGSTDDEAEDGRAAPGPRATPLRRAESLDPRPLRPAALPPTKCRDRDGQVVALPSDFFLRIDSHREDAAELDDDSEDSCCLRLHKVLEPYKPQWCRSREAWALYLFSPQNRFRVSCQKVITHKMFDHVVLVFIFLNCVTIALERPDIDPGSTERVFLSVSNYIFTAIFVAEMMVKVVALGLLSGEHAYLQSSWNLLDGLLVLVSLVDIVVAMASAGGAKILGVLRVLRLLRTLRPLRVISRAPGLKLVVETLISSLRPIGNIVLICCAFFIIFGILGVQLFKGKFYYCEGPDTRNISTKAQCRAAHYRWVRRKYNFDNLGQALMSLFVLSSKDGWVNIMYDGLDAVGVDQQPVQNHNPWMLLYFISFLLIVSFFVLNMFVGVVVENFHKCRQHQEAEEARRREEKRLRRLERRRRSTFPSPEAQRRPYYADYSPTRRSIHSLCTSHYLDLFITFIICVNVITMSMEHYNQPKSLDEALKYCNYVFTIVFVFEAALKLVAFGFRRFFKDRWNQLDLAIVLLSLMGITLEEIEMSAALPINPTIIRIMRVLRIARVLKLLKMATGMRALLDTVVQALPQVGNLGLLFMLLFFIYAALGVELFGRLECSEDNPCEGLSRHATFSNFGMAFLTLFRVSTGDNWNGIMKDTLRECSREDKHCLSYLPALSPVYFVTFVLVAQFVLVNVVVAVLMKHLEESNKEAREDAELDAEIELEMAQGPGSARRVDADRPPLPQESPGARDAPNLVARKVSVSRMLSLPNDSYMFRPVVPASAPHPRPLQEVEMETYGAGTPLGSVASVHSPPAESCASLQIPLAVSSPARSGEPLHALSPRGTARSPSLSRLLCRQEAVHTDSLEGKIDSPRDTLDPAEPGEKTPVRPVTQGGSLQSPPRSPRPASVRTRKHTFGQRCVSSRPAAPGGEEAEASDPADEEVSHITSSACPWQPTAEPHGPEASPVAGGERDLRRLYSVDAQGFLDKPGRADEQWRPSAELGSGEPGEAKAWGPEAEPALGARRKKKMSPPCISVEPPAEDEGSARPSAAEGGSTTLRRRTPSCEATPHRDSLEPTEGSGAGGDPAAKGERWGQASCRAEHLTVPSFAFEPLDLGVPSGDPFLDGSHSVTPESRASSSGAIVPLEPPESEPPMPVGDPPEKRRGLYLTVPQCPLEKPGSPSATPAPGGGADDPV
Protocol: (i) In Vitro Methods—Electrophysiologic Assessment of Calcium Channel Activity:
Patch-clamp recordings were performed using HEK293 cells stably expressing hCav3.2. Cells were plated in T175 flasks and grown at 37° C. and under 5% CO2 to approximately 50% confluency. On the day of the experiment, cells were harvested with Detachin™ cell detachment solution (Genlantis, San Diego, Calif.) and maintained in serum-free culture medium supplemented with 25 mM HEPES up to several hours prior to experiment. Whole-cell patch-clamp recordings were obtained using extracellular saline consisting of (mM): 87.5 CsCl, 40 TEA-Cl, 5 CaCl2, 1 MgCl2, 10 HEPES, 10 glucose. The pH was adjusted to 7.2 with CsOH and the osmolarity was adjusted to approximately 310 mOsm with sucrose. Intracellular solution consisted of (mM): 112 CsCl, 27 CsF, 2 NaCl, 8.2 EGTA, 10 HEPES. Prior to an experiment 4 mM Mg2ATP was added and the pH was adjusted to 7.2 with CsOH with an osmolarity of approximately 290 mOsm. A two-pulse voltage protocol was utilized to assess compound inhibition. First, cells were held with an 8 s pre-pulse at −100 mV prior to a 160 ms test pulse to −30 mV. This was followed by an 8 s pre-pulse at approximately −75 mV prior to a […]. Increasing concentrations of antagonist were applied to individual cells in a multi-addition format with 5 minutes in each test concentration. For each cell, responses were normalized to dimethyl sulfoxide vehicle control to generate concentration-response curves.

| SMILES | IC50 |
| --- | --- |
| O=C(c1cccc(S(=O)(=O)N2CCN3CCC[C@@H]3C2)c1)N1CCN(C(c2ccccc2)c2ccccc2)CC1 [Example 52, (8aR)-2-({3-[(4-benzhydrylpiperazin-1-yl)carbonyl]phenyl}sulfonyl)octahydropyrrolo[1,2-a]pyrazine] | 0.6 µM |
| O=C(NCCC(c1ccccc1)c1ccccc1)c1cccc(S(=O)(=O)N2CCN3CCC[C@H]3C2)c1 [Example 55, N-(3,3-diphenylpropyl)-3-[(8aS)-hexahydropyrrolo[1,2-a]pyrazin-2(1H)-ylsulfonyl]benzamide] | 1.8 µM |
| O=C(c1cc(S(=O)(=O)Nc2ccccc2F)c(F)cc1Cl)N1CCN2CCC[C@H]2C1 [Example 58, 4-chloro-2-fluoro-N-(2-fluorophenyl)-5-[(8aS)-hexahydropyrrolo[1,2-a]pyrazin-2(1H)-ylcarbonyl]benzenesulfonamide] | 4.6 µM |
| O=C(c1cc(S(=O)(=O)NCCC(c2ccccc2)c2ccccc2)c(F)cc1Cl)N1CCN2CCC[C@H]2C1 [Example 59, 4-chloro-N-(3,3-diphenylpropyl)-2-fluoro-5-[(8aS)-hexahydropyrrolo[1,2-a]pyrazin-2(1H)-ylcarbonyl]benzenesulfonamide] | 9 µM |
| O=C(c1cc(S(=O)(=O)N2CCc3ccccc32)c(F)cc1Cl)N1CCN2CCC[C@@H]2C1 [Example 63, (8aR)-2-[2-chloro-5-(2,3-dihydro-1H-indol-1-ylsulfonyl)-4-fluorobenzoyl]octahydropyrrolo[1,2-a]pyrazine] | > 10 µM |
| O=C(c1ccc(F)c(NS(=O)(=O)c2cccc(C(F)(F)F)c2)c1)N1CCN2CCC[C@@H]2C1 [Example 65, N-{2-fluoro-5-[(8aR)-hexahydropyrrolo[1,2-a]pyrazin-2(1H)-ylcarbonyl]phenyl}-3-(trifluoromethyl)benzenesulfonamide] | 1.84 µM |
| CN(c1ccccc1F)S(=O)(=O)c1cc(C(=O)N2CCN3CCC[C@@H]3C2)c(Cl)cc1F [Example 66, 4-chloro-2-fluoro-N-(2-fluorophenyl)-5-[(8aR)-hexahydropyrrolo[1,2-a]pyrazin-2(1H)-ylcarbonyl]-N-methylbenzenesulfonamide] | 5.9 µM |
| O=C(c1cc(S(=O)(=O)N2CCN(c3ccc(F)cc3)CC2)c(F)cc1Cl)N1CCN2CCC[C@@H]2C1 [Example 67, (8aR)-2-(2-chloro-4-fluoro-5-{[4-(4-fluorophenyl)piperazin-1-yl]sulfonyl}benzoyl)octahydropyrrolo[1,2-a]pyrazine] | 3.18 µM |
| O=C(Nc1cc(C(=O)N2CCN3CCC[C@@H]3C2)ccc1Cl)c1ccc(F)cc1 [Example 68, N-{2-chloro-5-[(8aR)-hexahydropyrrolo[1,2-a]pyrazin-2(1H)-ylcarbonyl]phenyl}-4-fluorobenzamide] | 10.9 µM |
| CN(c1cccc(C(=O)N2CCN3CCC[C@@H]3C2)c1)S(=O)(=O)c1cccc(C(F)(F)F)c1 [Example 69, N-{3-[(8aR)-hexahydropyrrolo[1,2-a]pyrazin-2(1H)-ylcarbonyl]phenyl}-N-methyl-3-(trifluoromethyl)benzenesulfonamide] | > 10 µM |
| O=C(c1cc(S(=O)(=O)NCC(c2ccccc2)c2ccccc2)c(F)cc1Cl)N1CCN2CCC[C@@H]2C1 [Example 70, 4-chloro-N-(2,2-diphenylethyl)-2-fluoro-5-[(8aR)-hexahydropyrrolo[1,2-a]pyrazin-2(1H)-ylcarbonyl]benzenesulfonamide] | 7.2 µM |
| O=C(Nc1cc(C(=O)N2CCN3CCC[C@@H]3C2)ccc1F)c1cc(Cl)cc(Cl)c1 [Example 73, 3,5-dichloro-N-{2-fluoro-5-[(8aR)-hexahydropyrrolo[1,2-a]pyrazin-2(1H)-ylcarbonyl]phenyl}benzamide] | 1.8 µM |
| O=C(Nc1ccc(C(=O)N2CCN3CCC[C@@H]3C2)cc1Cl)C(c1ccccc1)c1ccccc1 [Example 75, N-{2-chloro-4-[(8aR)-hexahydropyrrolo[1,2-a]pyrazin-2(1H)-ylcarbonyl]phenyl}-2,2-diphenylacetamide] | 6.5 µM |
| O=C(Nc1ccc(C(=O)N2CCN3CCC[C@@H]3C2)cc1Cl)c1ccc2ccccc2c1 [Example 76, N-{2-chloro-4-[(8aR)-hexahydropyrrolo[1,2-a]pyrazin-2(1H)-ylcarbonyl]phenyl}-2-naphthamide] | 6.4 µM |
| CC(C)N(c1cccc(C(=O)N2CCN3CCC[C@@H]3C2)c1)S(=O)(=O)c1cccc(C(F)(F)F)c1 [Example 77, N-{3-[(8aR)-hexahydropyrrolo[1,2-a]pyrazin-2(1H)-ylcarbonyl]phenyl}-N-isopropyl-3-(trifluoromethyl)benzenesulfonamide] | > 10 µM |
| O=C(Nc1cc(C(=O)N2CCN3CCC[C@@H]3C2)ccc1Cl)C(c1ccccc1)c1ccccc1 [Example 78, N-{2-chloro-5-[(8aR)-hexahydropyrrolo[1,2-a]pyrazin-2(1H)-ylcarbonyl]phenyl}-2,2-diphenylacetamide] | > 10 µM |
| O=C(c1cccc(NC(c2ccccc2)c2ccccc2)c1)N1CCN2CCC[C@@H]2C1 [Example 80, N-benzhydryl-N-{3-[(8aR)-hexahydropyrrolo[1,2-a]pyrazin-2(1H)-ylcarbonyl]phenyl}amine] | 2 µM |
| O=C(N[C@H](CO)c1ccccc1)c1cccc(S(=O)(=O)N2CCN3CCC[C@@H]3C2)c1 [Example 81, 3-[(8aR)-hexahydropyrrolo[1,2-a]pyrazin-2(1H)-ylsulfonyl]-N-[(1S)-2-hydroxy-1-phenylethyl]benzamide] | > 10 µM |
| O=C(NC(c1ccccc1)c1ccccc1)c1cc(S(=O)(=O)N2CCN3CCC[C@H]3C2)c(F)cc1Cl [Example 82, N-benzhydryl-2-chloro-4-fluoro-5-[(8aS)-hexahydropyrrolo[1,2-a]pyrazin-2(1H)-ylsulfonyl]benzamide] | 2.6 µM |
| O=C(NC1CC1)c1cc(S(=O)(=O)N2CCN3CCC[C@H]3C2)c(F)cc1Cl [Example 83, 2-chloro-N-cyclopropyl-4-fluoro-5-[(8aS)-hexahydropyrrolo[1,2-a]pyrazin-2(1H)-ylsulfonyl]benzamide] | > 10 µM |

More lines, now with the values ahead:

| IC50 | SMILES |
| --- | --- |
| 0.5 µM | O=C(NCC(c1ccccc1)c1ccccc1)c1cccc(S(=O)(=O)N2CCN3CCC[C@H]3C2)c1 [Example 53, N-(2,2-diphenylethyl)-3-[(8aS)-hexahydropyrrolo[1,2-a]pyrazin-2(1H)-ylsulfonyl]benzamide] |
| 1.2 µM | O=C(c1cccc(S(=O)(=O)N2CCN3CCC[C@H]3C2)c1)N1CCN(C(c2ccccc2)c2ccccc2)CC1 [Example 54, (8aS)-2-({3-[(4-benzhydrylpiperazin-1-yl)carbonyl]phenyl}sulfonyl)octahydropyrrolo[1,2-a]pyrazine] |
| 4.1 µM | O=C(NCCc1ccc(F)cc1)c1cccc(S(=O)(=O)N2CCN3CCC[C@H]3C2)c1 [Example 56, N-[2-(4-fluorophenyl)ethyl]-3-[(8aS)-hexahydropyrrolo[1,2-a]pyrazin-2(1H)-ylsulfonyl]benzamide] |
| 5 µM | O=C(N[C@@H]1C[C@H]1c1ccccc1)c1cccc(S(=O)(=O)N2CCN3CCC[C@H]3C2)c1 [Example 60, 3-[(8aS)-hexahydropyrrolo[1,2-a]pyrazin-2(1H)-ylsulfonyl]-N-[(1R,2S)-2-phenylcyclopropyl]benzamide] |
| > 10 µM | O=C(c1cccc(S(=O)(=O)N[C@@H]2C[C@H]2c2ccccc2)c1)N1CCN2CCC[C@H]2C1 [Example 61, 3-[(8aS)-hexahydropyrrolo[1,2-a]pyrazin-2(1H)-ylcarbonyl]-N-[(1R,2S)-2-phenylcyclopropyl]benzenesulfonamide] |
| > 10 µM | O=C(c1ccc(S(=O)(=O)N[C@H](CO)c2ccccc2)cc1)N1CCN2CCC[C@@H]2C1 [Example 62, 4-[(8aR)-hexahydropyrrolo[1,2-a]pyrazin-2(1H)-ylcarbonyl]-N-[(1S)-2-hydroxy-1-phenylethyl]benzenesulfonamide] |
| > 10 µM | Cc1cc(C(=O)N2CCN3CCC[C@@H]3C2)ccc1NC(=O)c1ccc2ccccc2c1 [Example 72, N-{4-[(8aR)-hexahydropyrrolo[1,2-a]pyrazin-2(1H)-ylcarbonyl]-2-methylphenyl}-2-naphthamide] |
| 2 µM | O=C(c1cc(S(=O)(=O)NC(c2ccccc2)c2ccccc2)c(F)cc1Cl)N1CCN2CCC[C@@H]2C1 [Example 74, N-benzhydryl-4-chloro-2-fluoro-5-[(8aR)-hexahydropyrrolo[1,2-a]pyrazin-2(1H)-ylcarbonyl]benzenesulfonamide] |
| 8.5 µM | O=C(c1ccc(Cl)c(NC(c2ccccc2)c2ccccc2)c1)N1CCN2CCC[C@@H]2C1 [Example 79, N-benzhydryl-N-{2-chloro-5-[(8aR)-hexahydropyrrolo[1,2-a]pyrazin-2(1H)-ylcarbonyl]phenyl}amine] |
